Results published in patent US10966426B2, “Herbicidal compositions comprising phenylpyrimidines” (BASF SE, priority 2016, dated 2021).
Several values for one entry are separate records, joined by “and”; a condition that tells them apart may be missing. Equal values may be shown once.

Assays:
Type in all cases: in vivo
Brachiaria decumbens = assay: greenhouse pre-emergence treatment, BRADC
Outline: (§1)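 Seeds were sown per species in pots of loamy sand with about 3.0% humus, sprayed with the aqueous spray liquor directly after sowing, watered and hooded until rooted, then kept at 10-25° C. or 20-35° C. for 2 to 4 weeks. Damage was scored 0 (none) to 100 (no emergence/complete destruction).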

Avena fatua [1] = assay: greenhouse pre-emergence treatment, AVEFA
Outline: as §1

Apera spica-venti [2] = assay: greenhouse pre-emergence treatment, APESV
Outline: as §1

Stellaria media = assay: greenhouse pre-emergence treatment, STEME
Outline: as §1

Avena fatua [3] = assay: greenhouse post-emergence treatment, AVEFA
Outline: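 Scoring ran on a 0-100 scale, 100 meaning no emergence or destroyed above-ground parts, over a 2-4 week period; Colby formula E=X+Y−(X·Y/100) gave expected mixture effects. Species grew separately in loamy sand (about 3.0% humus) at 10-25° C or 20-35° C, with water as solvent.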

Galium aparine = assay: greenhouse post-emergence treatment, GALAP
Outline: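 Each species was grown separately and treated once it reached 3 to 15 cm, using actives suspended or emulsified in water. Plants were kept at 10-25° C. or 20-35° C., depending on species. Damage is a 0–100 rating taken during 2 to 4 weeks.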

Apera spica-venti [4] = assay: greenhouse post-emergence treatment, APESV
Outline: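 Scale 0–100 damage rating (100 = complete destruction of above-ground parts, 0 = normal growth), read 2 to 4 weeks after post-emergence application of aqueous spray liquor to plants 3–15 cm tall.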

[5] = 20 DAT, Ex. 26 solo 62.5 gai/ha
[6] = 20 DAT, AVEFA, Ex. 26 solo 125 gai/ha
[7] = AVEFA, Ex. 26 solo 125 gai/ha, 20 DAT
[8] = AVEFA, Ex. 26 solo 250 gai/ha, 20 DAT
[9] = Ex. 26 solo, 125 gai/ha, 20 DAT

COC(=O)c1nc(C2CC2)ncc1-c1ccc(F)cc1Cl [Ex. 26]
% activity (Brachiaria decumbens; 20 DAT, BRADC, Ex. 26 solo 125 gai/ha): 50% | % activity (Brachiaria decumbens; 20 DAT, Ex. 26 solo 31.25 gai/ha): 0% | % activity (Brachiaria decumbens; [5]): 0% | % activity (Brachiaria decumbens; 20 DAT, Ex. 26 solo 125 gai/ha): 20% | % activity (Brachiaria decumbens; 21 DAT, BRADC, Ex. 26 solo 125 gai/ha): 10% | % activity (Brachiaria decumbens; 21 DAT, BRADC, Ex. 26 solo 250 gai/ha): 30% | % activity (Brachiaria decumbens; BRADC, Ex. 26 solo 31.25 gai/ha, 20 DAT): 0% | % activity (Brachiaria decumbens; BRADC, Ex. 26 solo 62.5 gai/ha, 20 DAT): 0% | % activity (Brachiaria decumbens; BRADC, Ex. 26 solo 125 gai/ha, 20 DAT): 20% and 30% | % activity (Brachiaria decumbens; BRADC, Ex. 26 solo 250 gai/ha, 20 DAT): 65% | % activity (Brachiaria decumbens; Ex. 26 solo 62.5 gai/ha, 20 DAT, BRADC): 20% | % activity (Brachiaria decumbens; Ex. 26 solo 125 gai/ha, 20 DAT, BRADC): 0% | % activity (Brachiaria decumbens; Ex. 26 solo, 31.25 gai/ha, 20 DAT, BRADC): 0% | % activity (Brachiaria decumbens; Ex. 26 solo, 62.5 gai/ha, 20 DAT, BRADC): 0% | % activity (Brachiaria decumbens; Ex. 26 solo, 125 gai/ha, 20 DAT, BRADC): 0% | % activity (Avena fatua [1]; [6]): 65% and 70% | % activity (Avena fatua [1]; 20 DAT, Ex. 26 solo 125 gai/ha): 65% | % activity (Avena fatua [1]; 21 DAT, AVEFA, Ex. 26 solo 250 gai/ha): 70% | % activity (Avena fatua [1]; AVEFA, 20 DAT, solo Ex. 26 62.5 gai/ha): 55% | % activity (Avena fatua [1]; AVEFA, 20 DAT, solo Ex. 26 62.5 gai/ha (Table X68)): 45% | % activity (Avena fatua [1]; AVEFA, 20 DAT, solo Ex. 26 125 gai/ha): 75% | % activity (Avena fatua [1]; AVEFA, 20 DAT, solo Ex. 26 125 gai/ha (Table X68)): 65% | % activity (Avena fatua [1]; AVEFA, Ex. 26 solo 62.5 gai/ha, 20 DAT): 40% | % activity (Avena fatua [1]; [7]): 65% | % activity (Avena fatua [1]; [8]): 75% | % activity (Avena fatua [1]; Ex. 26 solo, 31.25 gai/ha, 20 DAT, AVEFA): 25% and 20% | % activity (Avena fatua [1]; Ex. 26 solo, 62.5 gai/ha, 20 DAT, AVEFA): 55% | % activity (Apera spica-venti [2]; 20 DAT, Ex. 26 solo 125 gai/ha): 90% | % activity (Apera spica-venti [2]; 20 DAT, solo Ex. 26 125 gai/ha): 75% | % activity (Apera spica-venti [2]; 20 DAT, solo Ex. 26 125 gai/ha (Table X68)): 70% | % activity (Apera spica-venti [2]; Ex. 26 solo 125 gai/ha, 20 DAT): 65% | % activity (Apera spica-venti [2]; [9]): 70% | % activity (Stellaria media; 20 DAT, Ex. 26 solo 125 gai/ha): 20% | % activity (Stellaria media; 20 DAT, Ex. 26 solo 250 gai/ha): 90% | % activity (Stellaria media; 20 DAT, solo Ex. 26 15 gai/ha): 40% | % activity (Stellaria media; 20 DAT, solo Ex. 26 62.5 gai/ha): 30% | % activity (Stellaria media; 20 DAT, solo Ex. 26 125 gai/ha): 0% | % activity (Stellaria media; Ex. 26 solo 31.25 gai/ha, 20 DAT): 0% | % activity (Stellaria media; Ex. 26 solo 62.5 gai/ha, 20 DAT): 0% | % activity (Stellaria media; Ex. 26 solo 125 gai/ha, 21 DAT): 30% | % activity (Stellaria media; Ex. 26 solo 250 gai/ha, 21 DAT): 80% | % activity (Stellaria media; Ex. 26 solo, 62.5 gai/ha, 20 DAT): 0% | % activity (Stellaria media; [9]): 0% | % activity (Avena fatua [3]; 20 DAT, AVEFA, Ex. 26 solo 62.5 gai/ha): 65% | % activity (Avena fatua [3]; [6]): 75% | % activity (Avena fatua [3]; 20 DAT, AVEFA, Ex. 26 solo 250 gai/ha): 75% | % activity (Avena fatua [3]; [5]): 35% | % activity (Avena fatua [3]; 20 DAT, Ex. 26 solo 250 gai/ha): 70% | % activity (Avena fatua [3]; AVEFA, 21 DAT, solo Ex. 26 62.5 gai/ha): 70% | % activity (Avena fatua [3]; AVEFA, 21 DAT, solo Ex. 26 125 gai/ha): 70% | % activity (Avena fatua [3]; [7]): 70% | % activity (Avena fatua [3]; [8]): 75% | % activity (Avena fatua [3]; Ex. 26 solo 62.5 gai/ha, 20 DAT, AVEFA): 65% | % activity (Avena fatua [3]; Ex. 26 solo 62.5 gai/ha, 21 DAT, AVEFA): 50% | % activity (Avena fatua [3]; Ex. 26 solo 125 gai/ha, 20 DAT, AVEFA): 70% | % activity (Avena fatua [3]; Ex. 26 solo 250 gai/ha, 20 DAT, AVEFA): 75% | % activity (Avena fatua [3]; Ex. 26 solo, 125 gai/ha, 20 DAT, AVEFA): 65% | % activity (Avena fatua [3]; Ex. 26 solo, 125 gai/ha, 21 DAT, AVEFA): 70% | % activity (Avena fatua [3]; Ex. 26 solo, 250 gai/ha, 20 DAT, AVEFA): 85% | % activity (Galium aparine; 20 DAT, Ex. 26 solo 125 gai/ha): 0% | % activity (Galium aparine; 20 DAT, GALAP, Ex. 26 solo 62.5 gai/ha): 0% | % activity (Galium aparine; 20 DAT, GALAP, Ex. 26 solo 125 gai/ha): 0% | % activity (Galium aparine; 20 DAT, GALAP, Ex. 26 solo 250 gai/ha): 0% | % activity (Galium aparine; Ex. 26 solo 62.5 gai/ha, 20 DAT, GALAP (pyridate table)): 0% | % activity (Galium aparine; Ex. 26 solo 62.5 gai/ha, 20 DAT, GALAP (pyroxsulam table)): 0% | % activity (Galium aparine; Ex. 26 solo 125 gai/ha, 20 DAT, GALAP (pyridate table)): 0% | % activity (Galium aparine; Ex. 26 solo 125 gai/ha, 20 DAT, GALAP (pyroxsulam table)): 0% | % activity (Galium aparine; Ex. 26 solo 125 gai/ha, 21 DAT, GALAP): 0% | % activity (Galium aparine; Ex. 26 solo 250 gai/ha, 20 DAT, GALAP (pyridate table)): 0% | % activity (Galium aparine; Ex. 26 solo 250 gai/ha, 20 DAT, GALAP (pyroxsulam table)): 30% | % activity (Galium aparine; Ex. 26 solo 250 gai/ha, 21 DAT, GALAP): 0% | % activity (Galium aparine; GALAP, 21 DAT, solo Ex. 26 250 gai/ha): 25% | % activity (Galium aparine; GALAP, Ex. 26 solo 125 gai/ha, 20 DAT): 0% | % activity (Galium aparine; GALAP, Ex. 26 solo 250 gai/ha, 20 DAT): 0% | % activity (Apera spica-venti [4]; 20 DAT, APESV, Ex. 26 solo 62.5 gai/ha): 70% | % activity (Apera spica-venti [4]; 20 DAT, APESV, Ex. 26 solo 125 gai/ha): 75% | % activity (Apera spica-venti [4]; 20 DAT, APESV, Ex. 26 solo 250 gai/ha): 80% | % activity (Apera spica-venti [4]; 21 DAT, Ex. 26 solo 125 gai/ha): 65% | % activity (Apera spica-venti [4]; 21 DAT, Ex. 26 solo 250 gai/ha): 75% | % activity (Apera spica-venti [4]; APESV, Ex. 26 solo 125 gai/ha, 20 DAT): 75% and 70%
